# Experimental data from PMC8568920, “Serum apolipoprotein A-I potentiates the therapeutic efficacy of lysocin E against Staphylococcus aureus” (Nature Communications, 2021).
# Where a SMILES comes first, the peptide text is derived from it. Bridges are numbered along the chain shown (N, C = ends). [ ]: non-standard residue; d: D form. The star is where a group is joined. Hexanoyl(3R-OH,5-Me) = CC(C)C[C@@H](O)CC(=O)*; dNMeF = CN[C@H](Cc1ccccc1)C(=O)O
# Columns and labels:
# [1] = in vitro; details: human plasma
# Method: (§1) The antimicrobial activities of the compounds were measured using the microdilution method. Measurement of the bactericidal activity of lysocin E (0.25 µg ml^−1) and nisin (2 µg ml^−1) with or without ApoA-I was performed according to the National Committee for Clinical Laboratory Standards method. […] For the ∆menA and ∆menB strains, TSB medium was used instead of cation-adjusted-Mueller Hinton broth (CA-MHB) in the microdilution method. Sera and ApoA-I, II were added to the bacterial culture before distributing them into 96-well plates. ApoA-I and ApoA-II antimicrobial activity were evaluated using the RN4220 strain. The protein binding rate of lysocin E against human plasma was determined by a rapid equilibrium dialysis device (Thermo Fisher Scientific, Waltham, MA, USA) according to the manufacturer’s instructions.
# [2] = tested on: MRSA; experiment: microbe, parasite or virus in culture
# Method: as §1
# [3] = molecular target: T1, rhApoA-I ∆NM (Homo sapiens, UniProt P02647, DEL170-184); experiment: Bio-layer interferometry, binding to rhApoA-I ∆NM variant; details: BLI; biotinylated lysocin E on streptavidin biosensor; 2.5 µM protein
# T1 construct: 1 65 146 160 185 243; made in house; host or cells: E. coli BL21(DE3)/pLysS, pET20b (pET-hApo∆NM)
# Method: Bio-layer interferometry (BLI) measurements were performed on a BLItz system (ForteBio, Fremont, CA, USA) maintained at room temperature. Kinetic analyses were performed using BLItz Pro ver. 1.2.1.5 (ForteBio). The biotinylated ligand, diluted to 0.1 mg ml^−1 in BLItz buffer (0.05% [v/v] Tween-20 in PBS), was immobilised on a streptavidin biosensor and the kinetic analysis was performed by running BLItz buffer for 300 s each, in the presence and absence of analyte for association and dissociation, respectively. Biotinylated menaquinone (5) and biotinylated lysocin E derivatives (3 and 4) were synthesised as described in the Supplementary Information (Supplementary Figs. 7–15).
# [4] = tested on: Staphylococcus pseudintermedius JCM17571
# Method: as §1
# [5] = tested on: S. aureus (MRSA) MRSA4
# Method: as §1
# [6] = tested on: S. aureus (MRSA) MR5 (Clinical isolate)
# Method: as §1
# [7] = tested on: S. aureus Smith ATCC13709
# Method: as §1
# [8] = tested on: S. aureus Newman
# Method: as §1
# [9] = tested on: S. aureus (MRSA) JE2 (USA300)
# Method: as §1
# [10] = tested on: S. aureus (MRSA) MR2 (Clinical isolate)
# Method: as §1
# [11] = tested on: Staphylococcus haemolyticus JCM2416
# Method: as §1
# [12] = tested on: S. aureus (MRSA) MR4 (Clinical isolate)
# Method: as §1
# [13] = tested on: Bacillus subtilis JCM2499
# Method: as §1
# [14] = tested on: Bacillus cereus JCM20037
# Method: as §1
# [15] = tested on: S. aureus (MRSA) MR1 (Clinical isolate)
# Method: as §1
# [16] = tested on: S. aureus (MRSA) MR6 (Clinical isolate)
# Method: as §1
# T1 sequence (P02647 with tags, fused parts or gaps DEL170-184): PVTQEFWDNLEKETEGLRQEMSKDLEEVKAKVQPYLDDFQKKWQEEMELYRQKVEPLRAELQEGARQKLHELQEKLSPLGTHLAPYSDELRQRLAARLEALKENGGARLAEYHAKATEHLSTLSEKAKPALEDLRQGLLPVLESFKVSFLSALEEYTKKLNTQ
compound,measurement,setting,value
"CC[C@H](C)[C@@H]1NC(=O)[C@@H](Cc2c[nH]c3ccccc23)NC(=O)[C@@H](CCC(N)=O)NC(=O)[C@H](CCC(=O)O)NC(=O)[C@@H](CCCNC(=N)N)NC(=O)[C@H](CC(C)C)NC(=O)[C@@H](Cc2ccccc2)N(C)C(=O)CNC(=O)[C@H](CO)NC(=O)[C@@H](CCCNC(=N)N)NC(=O)[C@@H](NC(=O)C[C@H](O)CC(C)C)[C@@H](C)OC(=O)[C@H]([C@@H](C)O)NC1=O [Lysocin E, lysocin E] ({Hexanoyl(3R-OH,5-Me)}-T[dR]SG[dNMeF]L[dR]E[dQ][dW]IT; ester 1-C)",fraction unbound,[1],< 0.01
same,Antimicrobial activity (MIC),[2],4 µg/mL
same,MIC in 10% bovine serum,[2],0.063 µg/mL
same,Kd,[3],5.6 µM
same,"MIC of lysocin E, Serum 0% (A)",[4],4 µg/mL
same,"MIC of lysocin E, Serum 10% (B)",[4],0.13 µg/mL
same,"MIC of lysocin E, Serum 0% (A)",[5],4 µg/mL
same,"MIC of lysocin E, Serum 10% (B)",[5],0.25 µg/mL
same,"MIC of lysocin E, Serum 0% (A)",[6],4 µg/mL
same,"MIC of lysocin E, Serum 10% (B)",[6],0.13 µg/mL
same,"MIC of lysocin E, Serum 0% (A)",[7],2 µg/mL
same,"MIC of lysocin E, Serum 10% (B)",[7],0.063 µg/mL
same,"MIC of lysocin E, Serum 0% (A)",[8],4 µg/mL
same,"MIC of lysocin E, Serum 10% (B)",[8],0.13 µg/mL
same,"MIC of lysocin E, Serum 0% (A)",[9],4 µg/mL
same,"MIC of lysocin E, Serum 10% (B)",[9],0.13 µg/mL
same,"MIC of lysocin E, Serum 0% (A)",[10],2 µg/mL
same,"MIC of lysocin E, Serum 10% (B)",[10],0.13 µg/mL
same,"MIC of lysocin E, Serum 0% (A)",[11],2 µg/mL
same,"MIC of lysocin E, Serum 10% (B)",[11],0.0078 µg/mL
same,"MIC of lysocin E, Serum 0% (A)",[12],4 µg/mL
same,"MIC of lysocin E, Serum 10% (B)",[12],0.13 µg/mL
same,"MIC of lysocin E, Serum 0% (A)",[13],2 µg/mL
same,"MIC of lysocin E, Serum 10% (B)",[13],0.25 µg/mL
same,"MIC of lysocin E, Serum 0% (A)",[14],2 µg/mL
same,"MIC of lysocin E, Serum 10% (B)",[14],0.50 µg/mL
same,"MIC of lysocin E, Serum 0% (A)",[15],4 µg/mL
same,"MIC of lysocin E, Serum 10% (B)",[15],0.13 µg/mL
same,"MIC of lysocin E, Serum 0% (A)",[16],4 µg/mL
same,"MIC of lysocin E, Serum 10% (B)",[16],0.13 µg/mL
